# Measurements published in patent US11225505B2, “Antimicrobial polymyxin derivative compounds” (MONASH UNIVERSITY, priority 2015, dated 2022).
# Like-named read-outs stand apart in the source and are kept apart here. Where a SMILES comes first, the peptide text is derived from it. Bridges are numbered along the chain shown (N, C = ends). [ ]: non-standard residue; d: D form. The star is where a group is joined. Nicotinoyl(6-CF3) = O=C(c1ccc(C(F)(F)F)nc1)*; X32 = O=C(c1cnc(Cl)c(Cl)c1)*; X21 = O=C(c1cnc(Cl)cc1Cl)*; Dab = NCC[C@H](N)C(=O)O; Abu = CC[C@H](N)C(=O)O; Dap = NC[C@H](N)C(=O)O
# Columns and labels:
# Assay type in all cases: cell-based
# [1] = system: Acinetobacter baumannii FADDI-AB030; experiment: microbe, parasite or virus in culture; conditions: for MIC: Acinetobacter baumannii
# Method: MICs of the lipopeptides (trifluoroacetic acid salt, TFA) were determined by broth microdilution in cation-adjusted Mueller-Hinton broth (CAMHB) (Oxoid Australia, Thebarton, SA, Australia) according to the Clinical and Laboratory Standards Institute protocol (Clinical and Laboratory Standards Institute, Performance standards for antimicrobial susceptibility testing; twentyforth informational supplement M100-S24. Wayne, Pa., 2014). Polymyxin B sulphate was employed as the control. […] The following isolates were examined: Pseudomonas aeruginosa ATCC 27853, Pseudomonas aeruginosa FADDI-PA022*, Pseudomonas aeruginosa FADDI-PA01*, Pseudomonas aeruginosa FADDI-PA038*, Acinetobacter baumannii FADDI-AB034*, Acinetobacter baumannii ATCC 17978, Acinetobacter baumannii FADDI-AB030*, Klebsiella pneumoniae FADDI-KP032, Klebsiella pneumoniae FADDI-KP022*, Klebsiella pneumoniae Kp BM1*, Enterobacter cloacae FADDI-EC006, Enterobacter cloacae FADDI-EC001, and Enterobacter cloacae FADDI-EC003 (* Multi drug-resistant clinical isolates, § New Delhi Metallo-beta-lactamase-1 (NDM-1) producing). The results are illustrated in Tables 4 and 5. […]
# [2] = system: Klebsiella pneumoniae FADDI-KP022; conditions: FADDI-KP022
# Method: (§1) MICs of the lipopeptides (trifluoroacetic acid salt, TFA) were determined by broth microdilution in cation-adjusted Mueller-Hinton broth (CAMHB) (Oxoid Australia, Thebarton, SA, Australia) according to the Clinical and Laboratory Standards Institute protocol (Clinical and Laboratory Standards Institute, Performance standards for antimicrobial susceptibility testing; twentyforth informational supplement M100-S24. Wayne, Pa., 2014). Polymyxin B sulphate was employed as the control. Antimicrobial activity of Compounds 1-104 against polymyxin-susceptible Gram-negative bacteria was examined. The following isolates were examined: Pseudomonas aeruginosa ATCC 27853, Pseudomonas aeruginosa FADDI-PA022*, Pseudomonas aeruginosa FADDI-PA01*, Pseudomonas aeruginosa FADDI-PA038*, Acinetobacter baumannii FADDI-AB034*, Acinetobacter baumannii ATCC 17978, Acinetobacter baumannii FADDI-AB030*, Klebsiella pneumoniae FADDI-KP032, Klebsiella pneumoniae FADDI-KP022*, Klebsiella pneumoniae Kp BM1*, Enterobacter cloacae FADDI-EC006, Enterobacter cloacae FADDI-EC001, and Enterobacter cloacae FADDI-EC003 (* Multi drug-resistant clinical isolates, § New Delhi Metallo-beta-lactamase-1 (NDM-1) producing). The results are illustrated in Tables 4 and 5.
# [3] = system: Klebsiella pneumoniae FADDI-KP032; conditions: FADDI-KP032
# Method: as §1
# [4] = system: Pseudomonas aeruginosa FADDI-PA022; conditions: FADDI-PA022
# Method: as §1
# [5] = system: Enterobacter cloacae FADDI-EC003; conditions: FADDI-EC003
# Method: as §1
# [6] = system: Acinetobacter baumannii FADDI-AB034; conditions: FADDI-AB034
# Method: as §1
# [7] = system: Acinetobacter baumannii ATCC 17978; conditions: ATCC 17978
# Method: as §1
# [8] = system: Enterobacter cloacae FADDI-EC006; conditions: FADDI-EC006
# Method: as §1
# [9] = system: Pseudomonas aeruginosa ATCC 27853; conditions: ATCC 27853
# Method: as §1
# [10] = system: Pseudomonas aeruginosa FADDI-PA01; conditions: FADDI-
# Method: as §1
# [11] = system: Enterobacter cloacae FADDI-EC001; conditions: FADDI-EC001
# Method: as §1
# [12] = system: Pseudomonas aeruginosa FADDI-PA038; conditions: FADDI-PA038
# Method: as §1
# [13] = system: Klebsiella pneumoniae Kp BM1; conditions: Kp BM1
# Method: as §1
# [14] = FADDIAB030, clinically used antibiotics, clinical isolate A. baumannii FADDI-AB030, read-out: minimum inhibitory concentration
compound,measurement,setting,value
"NCC[C@H](O)C(=O)N[C@@H]1C[C@H](N)[C@@H](O[C@H]2O[C@H](CN)[C@@H](O)[C@H](O)[C@H]2O)[C@H](O)[C@H]1O[C@H]1O[C@H](CO)[C@@H](O)[C@H](N)[C@H]1O [Amikacin, reference compound]",MIC,[1]; [14],> 32 µg/mL
"CC1(C)S[C@@H]2[C@H](NC(=O)[C@H](N)c3ccccc3)C(=O)N2[C@H]1C(=O)O [Ampicillin, reference compound]",MIC,[1]; [14],> 16 µg/mL
"C[C@H]1[C@H](NC(=O)/C(=N\OC(C)(C)C(=O)O)c2csc(N)n2)C(=O)N1S(=O)(=O)O [Aztreonam, reference compound]",MIC,[1]; [14],> 16 µg/mL
"CO/N=C(\C(=O)N[C@@H]1C(=O)N2C(C(=O)[O-])=C(C[N+]3(C)CCCC3)CS[C@H]12)c1csc(N)n1 [Cefepime, reference compound]",MIC,[1]; [14],> 16 µg/mL
"CC(C)(O/N=C(\C(=O)N[C@@H]1C(=O)N2C(C(=O)[O-])=C(C[n+]3ccccc3)CS[C@H]12)c1csc(N)n1)C(=O)O [Ceftazidime, reference compound]",MIC,[1]; [14],> 16 µg/mL
"CO/N=C(\C(=O)N[C@@H]1C(=O)N2C(C(=O)O)=C(CSc3nc(=O)c(=O)[nH]n3C)CS[C@H]12)c1csc(N)n1 [Ceftriaxone, reference compound]",MIC,[1]; [14],> 32 µg/mL
CC[C@@H]1NC(=O)[C@@H](CC(C)C)NC(=O)[C@H](CCN)NC(=O)[C@@H](NC(=O)[C@H](CN)NC(=O)[C@@H](NC(=O)[C@H](CCN)NC(=O)c2cnc(Cl)cc2Cl)[C@@H](C)O)CCNC(=O)[C@H]([C@@H](C)O)NC(=O)[C@H](CCN)NC(=O)[C@H](CCN)NC1=O [Compound 2] (X21-[Dab]T[Dap][Dab][Dab][dL][Abu][Dab][Dab]T; lactam 4-C),Minimum inhibitory concentration,[1]; FADDI-AB030,2 µg/mL
same,Minimum inhibitory concentration,[2],<0.125 µg/mL
same,Minimum inhibitory concentration,[3],0.5 µg/mL
same,Minimum inhibitory concentration,[4],0.5 µg/mL
same,Minimum inhibitory concentration,[5],2 µg/mL
same,Minimum inhibitory concentration,[6],8 µg/mL
same,Minimum inhibitory concentration,[7],8 µg/mL
same,Minimum inhibitory concentration,[8],2 µg/mL
same,Minimum inhibitory concentration,[9],0.5 µg/mL
same,Minimum inhibitory concentration,[10],0.5 µg/mL
same,Minimum inhibitory concentration,[11],0.25 µg/mL
same,Minimum inhibitory concentration,[12],1 µg/mL
same,Minimum inhibitory concentration,[13],0.5 µg/mL
CC[C@@H]1NC(=O)[C@@H](CC(C)C)NC(=O)[C@H](CCN)NC(=O)[C@@H](NC(=O)[C@H](CN)NC(=O)[C@@H](NC(=O)[C@H](CCN)NC(=O)c2ccc(C(F)(F)F)nc2)[C@@H](C)O)CCNC(=O)[C@H]([C@@H](C)O)NC(=O)[C@H](CCN)NC(=O)[C@H](CCN)NC1=O [Compound 3] ({Nicotinoyl(6-CF3)}-[Dab]T[Dap][Dab][Dab][dL][Abu][Dab][Dab]T; lactam 4-C),Minimum inhibitory concentration,[1]; FADDI-AB030,1 µg/mL
same,Minimum inhibitory concentration,[2],<0.125 µg/mL
same,Minimum inhibitory concentration,[3],0.25 µg/mL
same,Minimum inhibitory concentration,[4],1 µg/mL
same,Minimum inhibitory concentration,[5],0.25 µg/mL
same,Minimum inhibitory concentration,[6],1 µg/mL
same,Minimum inhibitory concentration,[7],1 µg/mL
same,Minimum inhibitory concentration,[8],1 µg/mL
same,Minimum inhibitory concentration,[9],0.5 µg/mL
same,Minimum inhibitory concentration,[10],0.5 µg/mL
same,Minimum inhibitory concentration,[11],0.5 µg/mL
same,Minimum inhibitory concentration,[12],1 µg/mL
same,Minimum inhibitory concentration,[13],1 µg/mL
CC[C@@H]1NC(=O)[C@@H](CC(C)C)NC(=O)[C@H](CCN)NC(=O)[C@@H](NC(=O)[C@H](CN)NC(=O)[C@@H](NC(=O)[C@H](CCN)NC(=O)c2cnc(Cl)c(Cl)c2)[C@@H](C)O)CCNC(=O)[C@H]([C@@H](C)O)NC(=O)[C@H](CCN)NC(=O)[C@H](CCN)NC1=O [Compound 5] (X32-[Dab]T[Dap][Dab][Dab][dL][Abu][Dab][Dab]T; lactam 4-C),Minimum inhibitory concentration,[1]; FADDI-AB030,0.5 µg/mL
same,Minimum inhibitory concentration,[2],<0.125 µg/mL
same,Minimum inhibitory concentration,[3],0.25 µg/mL
same,Minimum inhibitory concentration,[4],1 µg/mL
same,Minimum inhibitory concentration,[5],0.5 µg/mL
same,Minimum inhibitory concentration,[6],0.5 µg/mL
same,Minimum inhibitory concentration,[7],1 µg/mL
same,Minimum inhibitory concentration,[8],1 µg/mL
same,Minimum inhibitory concentration,[9],1 µg/mL
same,Minimum inhibitory concentration,[10],0.25 µg/mL
same,Minimum inhibitory concentration,[11],0.25 µg/mL
same,Minimum inhibitory concentration,[12],0.5 µg/mL
same,Minimum inhibitory concentration,[13],<0.25 µg/mL
"C[C@@H](O)[C@H]1C(=O)N2C(C(=O)O)=C(S[C@@H]3CN[C@H](CNS(N)(=O)=O)C3)[C@H](C)[C@H]12 [Doripenem, reference compound]",MIC,[1]; [14],> 8 µg/mL
"C[C@H]1c2cccc(O)c2C(=O)C2=C(O)[C@]3(O)C(=O)C(C(N)=O)=C(O)[C@@H](N(C)C)[C@@H]3[C@@H](O)[C@@H]21 [Doxycycline, reference compound]",MIC,[1]; [14],> 8 µg/mL
"C[C@@H](O)[C@H]1C(=O)N2C(C(=O)O)=C(S[C@@H]3CN[C@H](C(=O)Nc4cccc(C(=O)O)c4)C3)[C@H](C)[C@H]12 [Ertapenem, reference compound]",MIC,[1]; [14],> 8 µg/mL
"C[C@H]1NCc2cc(-c3ccc4c(=O)c(C(=O)O)cn(C5CC5)c4c3OC(F)F)ccc21 [Garenoxacin, reference compound]",MIC,[1]; [14],> 4 µg/mL
"COc1c(N2CCNC(C)C2)c(F)cc2c(=O)c(C(=O)O)cn(C3CC3)c12 (stereo not drawn) [Gatifloxacin, reference compound]",MIC,[1]; [14],> 4 µg/mL
"C[C@@H](O)[C@H]1C(=O)N2C(C(=O)O)=C(SCCN=CN)C[C@H]12 [Imipenem, reference compound]",MIC,[1]; [14],> 8 µg/mL
"C[C@H]1COc2c(N3CCN(C)CC3)c(F)cc3c(=O)c(C(=O)O)cn1c23 [Levofloxacin, reference compound]",MIC,[1]; [14],> 4 µg/mL
"C[C@@H](O)[C@H]1C(=O)N2C(C(=O)O)=C(S[C@@H]3CN[C@H](C(=O)N(C)C)C3)[C@H](C)[C@H]12 [Meropenem, reference compound]",MIC,[1]; [14],> 8 µg/mL
"CN(C)c1ccc(O)c2c1C[C@H]1C[C@H]3[C@H](N(C)C)C(O)=C(C(N)=O)C(=O)[C@@]3(O)C(O)=C1C2=O [Minocycline, reference compound]",MIC,[1]; [14],> 8 µg/mL
"COc1c(N2C[C@@H]3CCCN[C@@H]3C2)c(F)cc2c(=O)c(C(=O)O)cn(C3CC3)c12 [Moxifloxacin, reference compound]",MIC,[1]; [14],> 4 µg/mL
"CCN1CCN(C(=O)N[C@@H](C(=O)N[C@@H]2C(=O)N3[C@@H]2SC(C)(C)[C@@H]3C(=O)O)c2ccccc2)C(=O)C1=O [Piperacillin, reference compound]",MIC,[1]; [14],> 64 µg/mL
"CN(C)[C@@H]1C(O)=C(C(N)=O)C(=O)[C@@]2(O)C(O)=C3C(=O)c4c(O)cccc4[C@@](C)(O)[C@H]3C[C@@H]12 [Tetracycline, reference compound]",MIC,[1]; [14],> 8 µg/mL
"CN(C)c1cc(NC(=O)CNC(C)(C)C)c(O)c2c1C[C@H]1C[C@H]3[C@H](N(C)C)C(O)=C(C(N)=O)C(=O)[C@@]3(O)C(O)=C1C2=O [Tigecycline, reference compound]",MIC,"[1]; FADDIAB030, read-out: minimum inhibitory concentration",4 µg/mL
"NC[C@H]1O[C@H](O[C@H]2[C@H](O)[C@@H](O[C@H]3O[C@H](CO)[C@@H](O)[C@H](N)[C@H]3O)[C@H](N)C[C@@H]2N)[C@H](N)C[C@@H]1O [Tobramycin, reference compound]",MIC,[1]; [14],> 16 µg/mL
Gentamicin [reference compound],Minimum inhibitory concentration,"[1]; clinically used antibiotics, clinical isolate A. baumannii FADDI-AB030",>8 µg/mL
